This note sets out measurements from EPA's ToxValDB 9.5 (doi:10.2903/j.efsa.2010.1406).

Broadly, the NOAEL is the highest dose or exposure tested at which no adverse effect was seen.

The conditions of data set [1]: subchronic; duration: 90 days.
Where [2] appears, read: subchronic, duration: 90 days, oral, diet.

`Cc1cc(SC(=O)CC(C)C)c(C)o1` [2,5-Dimethyl-3-thioisovalerylfuran] registered an NOEL in the data set with Rattus norvegicus (subchronic, duration: 90 days) of 0.73 mg/kg-day.

In data set [1], `CSC(=O)c1ccco1` [2-Furancarbothioic acid, S-methyl ester] gave an NOAEL of 6.7 mg/kg-day.

In the data set on Rattus norvegicus (chronic, duration: 1 years, oral, diet), `CC(=O)SC1=C(C)OCC1` [2-Methyl-3-thioacetoxy-4,5-dihydrofuran] gave an NOEL of 8.3 mg/kg-day.

`CC(=O)CC(C)SCc1ccco1` (centres undefined) [4-{[(Furan-2-yl)methyl]sulfanyl}pentan-2-one] gave an NOAEL in the data set on Rattus norvegicus (setting [2]) of 3.76 mg/kg-day.

In the data set with Rattus norvegicus (subchronic, duration: 90 days), `Cc1occc1SSSSc1ccoc1C` [Bis(2-methyl-3-furyl) tetrasulfide] displayed an NOEL of 0.56 mg/kg-day.

In turn, `Cc1occc1SSc1ccoc1C` [Bis(2-methyl-3-furyl)disulfide] came in with an NOEL with Rattus norvegicus (setting [2]) of 0.45 mg/kg-day.

For `CCOC(=O)CCSCc1ccco1` [Ethyl 3-(furfurylthio)propionate], the NOEL in the data set on Rattus norvegicus (subchronic, duration: 90 days) stood at 17 mg/kg-day.

In turn, `Cc1cc(SSc2cc(C)oc2C)c(C)o1` [Furan, 3,3'-dithiobis[2,5-dimethyl-] gave an NOEL in the data set on Rattus norvegicus (setting [2]) of 0.45 mg/kg-day.

As for `CCSC(C)=O` [S-Ethyl thiolacetate], in data set [1], the NOAEL is 6.7 mg/kg-day.
